Values joined by “and” are separate entries in the source; they are usually repeats but may differ in a detail not shown here. Identical values can stand only once. Marks after values point to notes of the source that are not given here.
Tested on: 5α-reductase
Assay: 5α-reductase activity, conversion of testosterone to 5α-dihydrotestosterone in normal human dermal fibroblast cultures (Example 3)
Assay type: cell-based
Conditions: for 5α-reductase activity as percentage of the DMSO group / 5α-DHT formed per culture well, mean / 5α-DHT formed per culture well, single well: 22 hours of incubation; for 5α-DHT formed per culture well, mean / 5α-DHT formed per culture well, single well: DMSO 1% (v/v); for 5α-DHT formed per culture well, mean: mean of triplicate; for 5α-DHT formed per culture well, single well: single replicate; for inhibition of the 5α-reductase activity: text of Example 3
Procedure: It is proposed to evaluate the effect of the products such as methyl oleate (Sigma commercial product, 99% purity), of the methyl esters of avocado and of a Serenoa Repens extract chosen as reference on the 5α-reductase activity. An in vitro model of normal human dermal fibroblast cultures was selected.
The fibroblast culture medium (FCM) consisted of MEM/M199 (3:1, v/v) supplemented with penicillin (50 IU/ml), streptomycin (50 μg/ml), sodium bicarbonate (0.2%, w/v) and FCS (10%, v/v).
The assay system consisted of normal human dermal fibroblasts cultured as a monolayer. The fibroblasts were isolated from a residue from abdominal plastic surgery performed on a person (subject BIOPREDIC No. I0013). The cells were used at the fifth passage; they were cultured until the monolayers were confluent in FCM medium at 37° C. in a humid atmosphere containing 5% CO2.
The fibroblast incubation medium (FIM) consisted of FCM supplemented with tritiated testosterone (1.6×10^−7 M, that is 6.32 μCi/ml) and nonradiolabeled testosterone (3.84×10^−6 M)
The test products and finasteride were taken up in DMSO before being diluted in the incubation medium. The final concentration of DMSO was kept constant and equal to 1% (v/v) in each dilution of test products and reference products.
The fibroblast cultures were preincubated in the presence of the test products or of the reference product for 2 hours before adding the substrate, testosterone. For this step, the test products and the reference product were prepared in the FCM medium.
After preincubation, the fibroblast cultures were incubated in the presence of the test products or of the reference product prepared in the FIM medium for 22 hours at 37° C. in a humid atmosphere containing 5% CO2. Control cultures were incubated in the FIM medium in the absence of test products and of reference product. “DMSO control” cultures were incubated in the FIM medium containing 1% (v/v) of DMSO.
Each experimental condition was tested in triplicate.
After the incubation period, the cells were subjected to the action of ultrasound in the FIM medium. The cellular lysates thus obtained were extracted with dichloromethane. After evaporation, the dry residues were taken up in methanol and were deposited on 60F254 silica plates (MERCK, reference 5554).
Nonradiolabeled standards, testosterone, 5α-dihydro-testosterone and androstenedione, were deposited on each of the plates.
The migration solvent was a mixture of dichloromethane and ether (7:3, v/v) At the end of the migration, the silica plates were read using a BERTHOLD radioactivity scanner.
The nonradiolabeled standards were visualized by spraying 5% sulfuric acid (v/v) over the chromatography plates which were then heated at 100° C. for 10 minutes.
Comparison of the Rf values (relative retardation factor) determined for the standards with those obtained for the various radioactive metabolites allowed the identification of the latter.
The metabolizing of testosterone to 5α-dihydro-testosterone under the various experimental conditions was calculated: the results (areas of the 5α-dihydrotestosterone peaks counted by the BERTHOLD scanner) were expressed in pmol of 5α-dihydro-testosterone formed per culture well. They were also expressed as a percentage of the 5α-reductase activity present in the “DMSO control” group.
The groups of data (control group and treated groups) were treated by a one-way analysis of variance (ANOVA 1, p<0.05), followed by a DUNNETT's test (p<0.05). The effect of the test products and of the reference product was compared with the “DMSO control” group. The effects of the test products were compared to each other by a two-way analysis of variance (ANOVA 2, p<0.05, factor 1=concentration and factor 2=treatment).

Structure (SMILES): CCCCCCCC/C=C\CCCCCCCC(=O)OC [Methyl oleate, methyl oleate]
- 5α-reductase activity as percentage of the DMSO group (1 μg/ml): 76 percentage of the DMSO group
- 5α-DHT formed per culture well, mean (1 μg/ml): 6.48* +/− pmol of 5α-DHT formed/culture well
- 5α-DHT formed per culture well, single well (1 μg/ml): 7.12 pmol of 5α-DHT formed/culture well and 6.24 pmol of 5α-DHT formed/culture well and 6.08 pmol of 5α-DHT formed/culture well
- inhibition of the 5α-reductase activity (1 μg/ml): 24%
- 5α-reductase activity as percentage of the DMSO group (10 μg/ml): 62 percentage of the DMSO group
- 5α-DHT formed per culture well, mean (10 μg/ml): 5.32* +/− pmol of 5α-DHT formed/culture well
- 5α-DHT formed per culture well, single well (10 μg/ml): 3.00 pmol of 5α-DHT formed/culture well and 7.04 pmol of 5α-DHT formed/culture well and 5.92 pmol of 5α-DHT formed/culture well
- inhibition of the 5α-reductase activity (10 μg/ml): 38%
- 5α-reductase activity as percentage of the DMSO group (100 μg/ml): 59 percentage of the DMSO group
- 5α-DHT formed per culture well, mean (100 μg/ml): 5.05* +/− pmol of 5α-DHT formed/culture well
- 5α-DHT formed per culture well, single well (100 μg/ml): 5.44 pmol of 5α-DHT formed/culture well and 5.12 pmol of 5α-DHT formed/culture well and 4.60 pmol of 5α-DHT formed/culture well
- inhibition of the 5α-reductase activity (100 μg/ml): 41%
- 5α-reductase inhibitory activity, in words (tested at 10 and 100 μg/ml, compared with Serenoa repens extract): significantly higher than that of the Serenoa repens extract

Source: US8318186B2, “Use of at least a fatty ester for preparing a composition designed to inhibit 5-α-reductase activity, in pharmacology, in particular dermatology, in cosmetics and as food additive” (Laboratoires Expanscience, priority 2000, dated 2012)
